In patent publication US6620828B2, “Thiazole compounds and pharmaceutical compositions for inhibiting protein kinases and methods for their use” (Agouron Pharmaceuticals, Inc., priority 1999, dated 2003) one finds inhibition, IC50 and Ki data, which are given here for 20 molecules.

Some results are limits rather than exact numbers.

Broadly, the inhibition is the relative decrease from the control value, in per cent. As a reminder, the IC50 is the point on the concentration scale where inhibition reaches its midpoint. A lower IC50 goes with higher potency. Usually Ki stands for a measure of affinity in units of concentration, obtained from inhibition or displacement. Read a high Ki as lower affinity.

Assay [1] addresses T1, CHK1 (Homo sapiens, UniProt O14757).
T1 sequence (O14757 1-476): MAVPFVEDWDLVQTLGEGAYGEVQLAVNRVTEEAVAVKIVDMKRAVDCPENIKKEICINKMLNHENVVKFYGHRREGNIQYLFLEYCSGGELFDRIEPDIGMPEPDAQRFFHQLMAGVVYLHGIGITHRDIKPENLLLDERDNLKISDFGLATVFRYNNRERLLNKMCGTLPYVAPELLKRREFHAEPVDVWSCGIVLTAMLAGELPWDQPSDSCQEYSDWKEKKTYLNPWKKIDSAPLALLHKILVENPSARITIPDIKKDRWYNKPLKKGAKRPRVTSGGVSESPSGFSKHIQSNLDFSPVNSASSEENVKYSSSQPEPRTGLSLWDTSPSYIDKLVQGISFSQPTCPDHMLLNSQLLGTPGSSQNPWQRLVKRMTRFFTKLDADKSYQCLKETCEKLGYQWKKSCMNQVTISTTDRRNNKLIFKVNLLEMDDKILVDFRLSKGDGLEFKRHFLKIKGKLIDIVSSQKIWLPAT
The assay is described as follows: CHK1 high-throughput screening. It is filed as biochemical. Particulars: read-out: % inhibition @ 20 μM, Table 4, repeated entries per example.

In assay [2] the test system is lung cancer cells (line MV522). In words: Cancer cell proliferation (MV522) assay. The format is cell-based. As to the method:
Cancer Cell Proliferation (MV522) Assay
The protocol for assessing cellular proliferation in cancer cells is similar to that used for assessments in HUVEC cells. Two thousand lung cancer cells (line MV522, acquired from American Tissue Cultural Collection) were seeded in growth media (RPMI1640 medium supplemented with 2 mM glutamine and 10% FBS). Cells are allowed to attach for 1 day prior to addition of test agents and/or vehicles. Cells are treated simultaneously with the same test agents used in the HUVEC assay. Cellular proliferation is quantified by MTT dye reduction assay 72 hours after exposure to test agents. The total length of the assay is 4 days vs. 5 for HUVEC cells because MV522 cells are not exposed to starvation medium.

Assay [3] has as its target T2, unphosphorylated VEGF-R2Δ50 (FLVK) (Homo sapiens, UniProt P35968, DEL940-989/E990V).
T2 construct: VEGF-R2Δ50 contains residues 806-939 and 990-1171; made in house; host or cells: baculovirus/insect cells
In words: VEGF-R2 coupled spectrophotometric assay, unphosphorylated enzyme (FLVK). It is filed as biochemical. Summed up:
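Unphosphorylated VEGF-R2Δ50 (5 to 40 nM) with 20 mM poly(E4Y1), 3 mM ATP, 60 mM MgCl2, 2 mM MnCl2 in 200 mM Hepes pH 7.5. ADP production coupled via PK/LDH to NADH oxidation, read at 340 nm. Ki from activity at varying compound concentrations.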

For assay [4], the system named is human umbilical vein endothelial cells (HUVEC). The assay is described as follows: HUVEC proliferation assay. It is filed as cell-based. The following applies: Homo sapiens, HUVEC. Summed up: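 Readout was MTT dye reduction (A595) after 72 h of stimulation with VEGF at 6 ng/ml final. Compound, in 0.1% DMSO final, was added 1 h before VEGF to HUVEC starved 24 h in 1% FBS. % inhibition was scaled between VEGF-alone and unstimulated wells; IC50 was fitted from triplicate dose curves.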

Assay [5] deals with T3, phosphorylated VEGF-R2Δ50 (FLVK-P) (Homo sapiens, UniProt P35968, DEL940-989/E990V).
T3 construct: VEGF-R2Δ50 contains residues 806-939 and 990-1171; made in house; host or cells: baculovirus/insect cells
The assay is described as follows: VEGF-R2 coupled spectrophotometric (FLVK-P) assay. The format is biochemical. The following applies: Table 1; spectrophotometric assay. The method in brief:
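Baculovirus-expressed human VEGF-R2Δ50 (residues 806-939/990-1171, E990V) was autophosphorylated with 3 mM ATP, 40 mM MgCl2 for 2 h at 4° C. ADP formation was coupled via PK/LDH to NADH oxidation, read at 340 nm, with 5.1 mM poly(E4Y1), 1 mM ATP, 25 mM MgCl2, Hepes pH 7.5. Ki came from activity across compound concentrations.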

T2 sequence (P35968 with tags, fused parts or gaps DEL940-989/E990V limits assumed): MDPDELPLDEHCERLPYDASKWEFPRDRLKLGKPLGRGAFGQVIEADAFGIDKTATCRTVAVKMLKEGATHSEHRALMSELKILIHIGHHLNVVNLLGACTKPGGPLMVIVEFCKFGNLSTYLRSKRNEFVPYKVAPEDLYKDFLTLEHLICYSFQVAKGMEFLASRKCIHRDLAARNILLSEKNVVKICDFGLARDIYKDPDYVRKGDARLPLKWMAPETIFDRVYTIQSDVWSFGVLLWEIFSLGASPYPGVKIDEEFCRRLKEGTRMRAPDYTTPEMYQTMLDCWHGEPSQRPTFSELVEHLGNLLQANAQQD
T3 sequence (P35968 with tags, fused parts or gaps DEL940-989/E990V limits assumed): as above

As for `COc1cc(Nc2nc(N)c(-c3nc(-c4cccc(C(=O)NCCc5ccccc5)c4)cs3)s2)cc(OC)c1OC` [A(31), 3-[4′-Amino-2′-(3,4,5-trimethoxy-phenylamino)-[2,5′]bithiazolyl-4-yl]-N-phenethyl-benzamide], the inhibition at 20 µM in assay [1] was 2.5%.

In the case of `COc1cc(Nc2nc(N)c(-c3nc(-c4cccc(C(=O)NCc5ccccc5)c4)cs3)s2)cc(OC)c1OC` [A(32), 3-[4′-Amino-2′-(3,4,5-trimethoxy-phenylamino)-[2,5′]bithiazolyl-4-yl]-N-benzyl-benzamide], the inhibition at 20 µM in assay [1] is -3.8%.

For `CCN(CC)CCCNc1nc(N)c(-c2nc(-c3cccc(NC(=O)c4ccccc4)c3)cs2)s1` [A(37), N-{3-[4′-Amino-2′-(3-diethylamino-propylamino)-[2,5′]bithiazolyl-4-yl]-phenyl}-benzamide], in assay [1], the inhibition at 20 µM is 16%.

As for `COC(=O)c1cccc(Nc2nc(N)c(-c3nc(-c4cccc(NC(=O)c5ccccc5)c4)cs3)s2)c1` [A(39), 3-[4′-Amino-4-(3-benzoylaminophenyl)-[2,5′]bithiazolyl-2′-ylamino]-benzoic acid methyl ester], the inhibition at 20 µM in assay [1] worked out at 2.2%.

For the molecule `Nc1nc(Nc2ccc3c(c2)OCO3)sc1-c1nc(-c2cccc(NC(=O)c3ccccc3)c2)cs1` [A(41), N-{3-[4′-Amino-2′-(benzo[1,3]dioxol-5-ylamino)-[2,5′]bithiazolyl-4-yl]-phenyl}-benzamide], in assay [1], the inhibition at 20 µM is 3.8%.

On to `CNc1nc(N)c(-c2nc(-c3cc(NC(=O)c4cccc(OC)c4)ccc3C)no2)s1` [B(17), N-(3-{5-[4-Amino-2-(3,4,5-methylamino)-thiazol-5-yl]-[1,2,4]oxadiazol-3-yl]-4-methyl-phenyl}-3-methoxy-benzamide], for which the IC50 in assay [2] (MV522, Table 3) stood at 1.3 µM; in assay [4] (Table 3) it was 0.063 µM. Also, the Ki in assay [3] (Table 3, some entries 'Slow binder') worked out at 0.0034 µM.

As for `COc1cc(Nc2nc(N)c(-c3nc(-c4cccc(NC(=O)OCc5ccccc5)c4)cs3)s2)cc(OC)c1OC` [D(12), {3-[4′-Amino-2′-(3,4,5-trimethoxy-phenylamino)-[2,5′]bithiazolyl-4-yl]-phenyl}-carbamic acid benzyl ester], the IC50 in assay [2] (MV522, Table 1) was more than 10 µM; in assay [4] (Table 1), 0.16 µM. The Ki in assay [5] was found to be 0.002 µM; in assay [3] (Table 1) it was 0.0026 µM.

For the molecule `COc1cc(Nc2nc(N)c(-c3nc(-c4cccc(NC(=O)c5ccccc5)c4)cs3)s2)cc(OC)c1OC` [D(24), N-{3-[4′-Amino-2′-(3,4,5-trimethoxy-phenylamino)-[2,5′]bithiazolyl-4-yl]-phenyl}-benzamide], the IC50 in assay [2] (MV522, Table 1) is more than 10 µM; in assay [4] (Table 1), 0.11 µM. Moreover, the Ki in assay [5] came out at 0.0018 µM; in assay [3] (Table 1) it was 0.002 µM.

For `COc1cc(Nc2nc(N)c(-c3nc(-c4cccc(NC(=O)c5sc(C)nc5C)c4)cs3)s2)cc(OC)c1OC` [D(33), 2,4-Dimethyl-thiazole-5-carboxylic acid {3-[4′-amino-2′-(3,4,5-trimethoxy-phenylamino)-[2,5′]bithiazolyl-4-yl]-phenyl}-amide], the IC50 in assay [2] (MV522, Table 1) was more than 10 µM; in assay [4] (Table 1) it was 0.12 µM. In addition, the Ki in assay [5] was determined as 0.0038 µM; in assay [3] (Table 1) it was 0.0036 µM.

With `CCc1cccc(C(=O)Nc2cccc(-c3csc(-c4sc(Nc5cc(OC)c(OC)c(OC)c5)nc4N)n3)c2)c1` [D(39), N-{3-[4′-Amino-2′-(3,4,5-trimethoxy-phenylamino)-[2,5′]bithiazolyl-4-yl]-phenyl}-3-ethyl-benzamide], the 50% inhibitory concentration (IC50) in assay [2] (MV522, Table 1) is more than 10 µM; in assay [4] (Table 1), 0.062 µM. This molecule also came in with a Ki in assay [5] of 0.0014 µM.

On to `COc1cc(Nc2nc(N)c(-c3nc(-c4cccc(NC(=O)c5cccc(Cl)c5)c4)cs3)s2)cc(OC)c1OC` [D(40), N-{3-[4′-Amino-2′-(3,4,5-trimethoxy-phenylamino)-[2,5′]bithiazolyl-4-yl]-phenyl}-3-chloro-benzamide], for which the IC50 in assay [2] (MV522, Table 1) is more than 10 µM; in assay [4] (Table 1), 0.039 µM. In addition, the Ki in assay [5] is 0.0011 µM; in assay [3] (Table 1), 0.0014 µM.

Consider `COc1cccc(C(=O)Nc2cccc(-c3csc(-c4sc(Nc5cc(OC)c(OC)c(OC)c5)nc4N)n3)c2)c1` [D(41), N-{3-[4′-Amino-2′-(3,4,5-trimethoxy-phenylamino)-[2,5′]bithiazolyl-4-yl]-phenyl}-3-methoxy-benzamide], for which the IC50 in assay [2] (MV522, Table 1) is more than 10 µM; in assay [4] (Table 1), 0.037 µM. This molecule showed a Ki in assay [5] of 0.0019 µM.

Regarding `COc1cc(Nc2nc(N)c(-c3nc(-c4cccc(NC(=O)c5ncc(C)s5)c4)cs3)s2)cc(OC)c1OC` [D(42), 5-Methyl-thiazole-2-carboxylic acid {3-[4′-amino-2′-(3,4,5-trimethoxy-phenylamino)-[2,5′]bithiazolyl-4-yl]-phenyl}-amide], the IC50 in assay [2] (MV522, Table 1) is more than 10 µM; in assay [4] (Table 1), 0.053 µM. Further, the Ki in assay [5] came to 0.00034 µM; in assay [3] (Table 1), 0.00077 µM.

Regarding `COc1cc(Nc2nc(N)c(-c3nc(-c4cccc(NC(=O)OC(C)(C)C)c4)cs3)s2)cc(OC)c1OC` [D(43), {3-[4′-Amino-2′-(3,4,5-trimethoxy-phenylamino)-[2,5′]bithiazolyl-4-yl]-phenyl}-carbamic acid tert-butyl ester], the IC50 in assay [2] (MV522, Table 1) was more than 10 µM; in assay [4] (Table 1), 0.241 µM. Further, the Ki in assay [5] was determined as 0.0029 µM.

As to `COc1cc(Nc2nc(N)c(-c3nc(-c4cccc(NC(=O)OCc5ccccc5)c4)no3)s2)cc(OC)c1OC` [D(44), 3-[3-Benzyloxycarboxy-aminophenyl]-5-[2-[(3,4,5-trimethoxyphenyl)amino]-4-amino-5-thiazolyl]-1,2,4-oxadiazole], the IC50 was more than 10 µM in assay [2] (MV522, Table 1) and 0.373 µM in assay [4] (Table 1). Besides, the Ki in assay [5] came to 0.0054 µM; in assay [3] (Table 1), 0.0021 µM.

With `COc1cc(Nc2nc(N)c(-c3nc(-c4cccc(NC(=O)c5ccccc5)c4)no3)s2)cc(OC)c1OC` [D(46), 3-[3-Benzamidophenyl]-5-[2-[(3,4,5-trimethoxyphenyl)amino]-4-amino-5-thiazolyl]-1,2,4-oxadiazole], the IC50 was more than 10 µM in assay [2] (MV522, Table 1) and 0.123 µM in assay [4] (Table 1). Also, in assay [5], the affinity corresponds to a Ki of 0.0171 µM.

In the case of `COc1cc(Nc2nc(N)c(-c3nc(-c4cccc(NC(=O)c5cccc(C)c5)c4)no3)s2)cc(OC)c1OC` [D(47), 3-[3-(3-Methylbenzamido)phenyl]-5-[2-[(3,4,5-trimethoxyphenyl)amino]-4-amino-5-thiazolyl]-1,2,4-oxadiazole], the IC50 in assay [2] (MV522, Table 1) is more than 10 µM; in assay [4] (Table 1) it was 0.013 µM. Besides, the results for the Ki in assay [5] and in assay [3] (Table 1) were 0.0011 µM and 0.00034 µM, respectively.

Consider `COc1cccc(C(=O)Nc2cccc(-c3noc(-c4sc(Nc5cc(OC)c(OC)c(OC)c5)nc4N)n3)c2)c1` [D(48), 3-[3-(3-Methoxybenzamido)phenyl]-5-[2-[(3,4,5-trimethoxyphenyl)amino]-4-amino-5-thiazolyl]-1,2,4-oxadiazole], for which the IC50 was more than 10 µM in assay [2] (MV522, Table 1) and 0.04 µM in assay [4] (Table 1). In assay [5], this molecule returned a Ki of 0.0041 µM.

`COc1cc(Nc2nc(N)c(-c3nc(-c4cccc(NC(=O)c5cccc(C(F)(F)F)c5)c4)no3)s2)cc(OC)c1OC` [D(49), 3-[3-(3-Trifluoromethylbenzamido)phenyl]-5-[2-[(3,4,5-trimethoxyphenyl)amino]-4-amino-5-thiazolyl]-1,2,4-oxadiazole]: the IC50 in assay [2] (MV522, Table 1) was more than 10 µM; in assay [4] (Table 1) it was 0.015 µM. For the same molecule, affinity in assay [5] was put at a Ki of 0.0016 µM.

On to `COc1cc(Nc2nc(N)c(-c3nc(-c4cccc(NC(=O)c5cccc(Cl)c5)c4)no3)s2)cc(OC)c1OC` [D(50), 3-[3-(3-Chlorobenzamido)phenyl]-5-[2-[(3,4,5-trimethoxyphenyl)amino]-4-amino-5-thiazolyl]-1,2,4-oxadiazole], for which the IC50 in assay [2] (MV522, Table 1) is more than 10 µM; in assay [4] (Table 1), 0.017 µM. The affinity in assay [5] corresponds to a Ki of 0.0014 µM.
